Measurements: patent US20180148418A1, “AMIDO-SUBSTITUTED CYCLOHEXANE DERIVATIVES” (Bayer Pharma Aktiengesellschaft, priority 2015, published 2018)

How the values were obtained:
[1] = tested on: HEK293 cells cotransfected with the FOP control vector; assay: HEK293 FOP assay (control reporter with non-functional TCF elements); type: cell-based; details: Homo sapiens, 16 hours
Outline: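 Stable HEK293 line carrying FOP control reporter (randomized non-functional TCF sites, with pcDNA3), Geneticin-selected, plated 24 h before assay. Stimulated with recombinant human Wnt-3a (2500-5 ng/ml) and compounds 50 μM–15 nM (3.16-fold steps) in CAFTY buffer pH 7.4 with 2 mM Ca2+, 0.01% BSA, run parallel to TOP line.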

[2] = biological target: T1, TNKS2 (Homo sapiens, UniProt Q9H2K2); assay: TNKS2 Assay B (auto-parsylation, [3H]-NAD+ SPA); type: biochemical; details: 6 nM TNKS2, auto-parsylation, over night at room temperature
T1 construct: purchased BPS Bioscience, San Diego, USA 80572 (TNKS2 Histone Ribosylation Assay Kit)
T1 sequence (Q9H2K2 1-1166): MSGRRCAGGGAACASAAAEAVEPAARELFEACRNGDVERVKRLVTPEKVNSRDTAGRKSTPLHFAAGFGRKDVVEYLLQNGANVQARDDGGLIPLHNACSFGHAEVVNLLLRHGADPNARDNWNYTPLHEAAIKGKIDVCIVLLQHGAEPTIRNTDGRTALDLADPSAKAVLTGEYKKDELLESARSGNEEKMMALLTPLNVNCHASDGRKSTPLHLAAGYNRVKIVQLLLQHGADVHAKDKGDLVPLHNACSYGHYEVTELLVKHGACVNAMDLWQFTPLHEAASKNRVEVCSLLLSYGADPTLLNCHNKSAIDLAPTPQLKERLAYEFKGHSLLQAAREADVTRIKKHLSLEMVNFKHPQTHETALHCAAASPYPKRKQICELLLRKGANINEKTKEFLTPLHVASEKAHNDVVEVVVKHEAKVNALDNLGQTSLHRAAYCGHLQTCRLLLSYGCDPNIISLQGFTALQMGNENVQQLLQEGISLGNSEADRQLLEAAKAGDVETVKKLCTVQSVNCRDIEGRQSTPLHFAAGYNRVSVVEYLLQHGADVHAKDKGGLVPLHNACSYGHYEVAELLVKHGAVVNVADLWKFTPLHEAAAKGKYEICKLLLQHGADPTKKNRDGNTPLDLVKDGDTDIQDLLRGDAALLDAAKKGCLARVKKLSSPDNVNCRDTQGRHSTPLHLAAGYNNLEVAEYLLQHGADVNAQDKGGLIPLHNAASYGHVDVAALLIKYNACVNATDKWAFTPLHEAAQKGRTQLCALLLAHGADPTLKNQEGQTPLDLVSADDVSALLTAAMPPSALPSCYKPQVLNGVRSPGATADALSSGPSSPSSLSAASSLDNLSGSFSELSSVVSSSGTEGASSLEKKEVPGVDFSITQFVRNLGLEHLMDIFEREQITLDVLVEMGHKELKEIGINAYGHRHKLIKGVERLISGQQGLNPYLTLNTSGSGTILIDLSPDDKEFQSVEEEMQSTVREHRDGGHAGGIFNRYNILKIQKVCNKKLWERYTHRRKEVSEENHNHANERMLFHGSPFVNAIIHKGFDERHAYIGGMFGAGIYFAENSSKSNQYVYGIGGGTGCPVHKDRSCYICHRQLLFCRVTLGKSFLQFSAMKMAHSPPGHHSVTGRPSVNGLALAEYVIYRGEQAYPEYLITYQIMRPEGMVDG

[3] = tested on: wildtype Wnt signaling cascade; assay: HEK293 TOP assay (Super TopFlash luciferase reporter, Wnt-3a stimulated); type: cell-based; details: Homo sapiens, HEK293, 16 h, HEK293 TOP reporter cells, Wnt3a at EC50, 16 hours
Outline: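 HEK293 cells stably carrying Super TopFlash (TOP) run in parallel with FOP cells, 10000/well plated 24 h ahead, stimulated with recombinant human Wnt-3a. Compounds tested 50 μM to 15 nM in 3.16-fold steps in CAFTY buffer pH 7.4 with 2 mM Ca^2+ and 0.01% BSA; luciferase read-out.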

| Structure (SMILES) | IC50 [1] | IC50 [2] | IC50 [3] |
| --- | --- | --- | --- |
| O=C(N[C@H]1CC[C@]2(CCN(c3ccc(F)cc3Cl)C2=O)CC1)c1[nH]cnc1C(=O)N1CC(F)C1 [Example 340, N-[(cis)-2-(2-chloro-4-fluorophenyl)-1-oxo-2-azaspiro[4.5]dec-8-yl]-4-[(3-fluoroazetidin-1-yl)carbonyl]-1H-imidazole-5-carboxamide] | 25000 nM | 850 nM | 77 nM |
| COCCNC(=O)c1nc[nH]c1C(=O)N[C@H]1CC[C@]2(CCN(c3ccc(F)cc3Cl)C2=O)CC1 [Example 341, N^5-[(cis)-2-(2-chloro-4-fluorophenyl)-1-oxo-2-azaspiro[4.5]dec-8-yl]-N^4-(2-methoxyethyl)-1H-imidazole-4,5-dicarboxamide] | ≥ 50000 nM | > 10000 nM | 2900 nM |
| NC(=O)c1nc[nH]c1C(=O)N[C@H]1CC[C@]2(CCN(c3ccc(F)cc3Cl)C2=O)CC1 [Example 342, N^5-[(cis)-2-(2-chloro-4-fluorophenyl)-1-oxo-2-azaspiro[4.5]dec-8-yl]-1H-imidazole-4,5-dicarboxamide] | 35000 nM | 1300 nM | 840 nM |
| Cn1cc(C(=O)N[C@H]2CC[C@@]3(CCN(c4ccc(F)cc4Cl)C3=O)CC2)c2ncccc21 [Example 343, N-[(trans)-2-(2-chloro-4-fluorophenyl)-1-oxo-2-azaspiro[4.5]dec-8-yl]-1-methyl-1H-pyrrolo[3,2-b]pyridine-3-carboxamide] | 24000 nM | 16 nM | 2.3 nM |
| O=C(N[C@H]1CC[C@@]2(CCN(c3ccc(F)cc3Cl)C2=O)CC1)c1cn(CCO)c2cccnc12 [Example 344, N-[(trans)-2-(2-chloro-4-fluorophenyl)-1-oxo-2-azaspiro[4.5]dec-8-yl]-1-(2-hydroxyethyl)-1H-pyrrolo[3,2-b]pyridine-3-carboxamide] | ≥ 50000 nM | 21 nM | 4 nM |
| COCCn1cc(C(=O)N[C@H]2CC[C@@]3(CCN(c4ccc(F)cc4Cl)C3=O)CC2)c2ncccc21 [Example 345, N-[(trans)-2-(2-chloro-4-fluorophenyl)-1-oxo-2-azaspiro[4.5]dec-8-yl]-1-(2-methoxyethyl)-1H-pyrrolo[3,2-b]pyridine-3-carboxamide] | 8200 nM | 44 nM | 17 nM |
| O=C(N[C@H]1CC[C@@]2(CCN(c3ccccn3)C2=O)CC1)c1cnn2cccnc12 [Example 346, N-[(trans)-1-oxo-2-(pyridin-2-yl)-2-azaspiro[4.5]dec-8-yl]pyrazolo[1,5-a]pyrimidine-3-carboxamide] | ≥ 50000 nM | 530 nM | 59 nM |
| O=C(N[C@H]1CC[C@@]2(CCN(c3ccc(F)cc3Cl)C2=O)CC1)c1nnc2cccnn12 [Example 347, N-[(trans)-2-(2-chloro-4-fluorophenyl)-1-oxo-2-azaspiro[4.5]dec-8-yl][1,2,4]triazolo[4,3-b]pyridazine-3-carboxamide] | ≥ 50000 nM | 4000 nM | 2400 nM |
| CCc1cc(CC)n2ncc(C(=O)N[C@H]3CC[C@@]4(CCN(c5ccc(F)cc5Cl)C4=O)CC3)c2n1 [Example 348, N-[(trans)-2-(2-chloro-4-fluorophenyl)-1-oxo-2-azaspiro[4.5]dec-8-yl]-5,7-diethyl pyrazolo[1,5-a]pyrimidine-3-carboxamide] | ≥ 50000 nM | 9.2 nM | 1.8 nM |
| O=C(N[C@H]1CC[C@@]2(CCN(c3ccc(F)cc3Cl)C2=O)CC1)c1cnc2c(NCCC(F)(F)F)cc(Cl)nn12 [Example 349, 6-chloro-N-[(trans)-2-(2-chloro-4-fluorophenyl)-1-oxo-2-azaspiro[4.5]dec-8-yl]-8-[(3,3,3-trifluoropropyl)amino]imidazo[1,2-b]pyridazine-3-carboxamide] | ≥ 50000 nM | 43 nM | 14 nM |
| O=C(N[C@H]1CC[C@@]2(CCN(c3ccc(F)cc3Cl)C2=O)CC1)c1c[nH]c2nccnc12 [Example 350, N-[(trans)-2-(2-chloro-4-fluorophenyl)-1-oxo-2-azaspiro[4.5]dec-8-yl]-5H-pyrrolo[2,3-b]pyrazine-7-carboxamide] | ≥ 50000 nM | 20 nM | 1.2 nM |
| COc1ccc(Cl)c(N2CC[C@]3(CC[C@@H](NC(=O)c4cnn5cccnc45)CC3)C2=O)c1 [Example 353, N-[(trans)-2-(2-chloro-5-methoxyphenyl)-1-oxo-2-azaspiro[4.5]dec-8-yl]pyrazolo[1,5-a]pyrimidine-3-carboxamide] | 28000 nM | 27 nM | 7.2 nM |
| O=C(N[C@H]1CC[C@@]2(CCN(c3ccc(OC(F)(F)F)cc3Cl)C2=O)CC1)c1cnn2cccnc12 [Example 354, N-{(trans)-2-[2-chloro-4-(trifluoromethoxy)phenyl]-1-oxo-2-azaspiro[4.5]dec-8-yl}pyrazolo[1,5-a]pyrimidine-3-carboxamide] | 19000 nM | 26 nM | 15 nM |
| O=C(N[C@H]1CC[C@@]2(CCN(c3cccs3)C2=O)CC1)c1cnn2cccnc12 [Example 361, N-[(trans)-1-oxo-2-(thiophen-2-yl)-2-azaspiro[4.5]dec-8-yl]pyrazolo[1,5-a]pyrimidine-3-carboxamide] | ≥ 50000 nM | 3900 nM | 560 nM |
| COC(=O)c1ccc(N2CC[C@]3(CC[C@@H](NC(=O)c4cnn5cccnc45)CC3)C2=O)c(Cl)c1 [Example 362, methyl 3-chloro-4-{(trans)-1-oxo-8-[(pyrazolo[1,5-a]pyrimidin-3-ylcarbonyl)amino]-2-azaspiro[4.5]dec-2-yl}benzoate] | 31000 nM | 33 nM | 3.9 nM |
